pIC50: −log10 of the molar value. Like-named read-outs stand apart in the source and are kept apart here.
Experiments:
A-431 = test: SRB cell proliferation assay, A-431; assay type: cell-based; conditions: Homo sapiens; A-431 (skin); compound 1 tested in racemic mixture
Description: (§1) Cells were exposed to the test compound racemate at various concentrations appropriate to determine an IC50 for 72 hours. Cell proliferation was measured using the SRB assay according to Shekan et al (J Natl Cancer Inst (1990) 82, 1107-112) in order to estimate the IC50 values shown in Table 3. Briefly, cells were plated in 96 well dishes 24 hours prior to compound addition at the densities specified in Table 5.1. The assay was terminated with the addition of cold TCA to a final concentration of 10% after growth medium has been removed and the plates were incubated over night at 4°C. The plates were then washed 5 times with water and 100µl of a Sulforhodamine B solution ([…]) was added to each well. The plates were then incubated for 10 minutes at room temperature before removal of unbound dye by washing with 1% acetic acid. The bound dye was solubilised with 10 mM Trizma base and the absorbance read at OD520.
(§2) Inhibitory activity of the compound (IC) was calculated as % inhibition of cell proliferation compared to cells treated with the solvent (DMSO).
(§3) Table 8.1: 18-Cell Line Panel

A549 = test: SRB cell proliferation assay, A549; assay type: cell-based; conditions: Homo sapiens; A549 (lung); compound 1 tested in racemic mixture
Description: as §1, §2, §3

ACHN = test: SRB cell proliferation assay, ACHN; assay type: cell-based; conditions: Homo sapiens; ACHN (kidney); compound 1 tested in racemic mixture
Description: as §1, §2, §3

DU 145 = test: SRB cell proliferation assay, DU 145; assay type: cell-based; conditions: Homo sapiens; DU 145 (prostate); compound 1 tested in racemic mixture
Description: as §1, §2, §3

MDA-MB-468 = test: SRB cell proliferation assay, MDA-MB-468; assay type: cell-based; conditions: MDA-MB-468 (breast), compound 1 tested in racemic mixture
Description: as §1, §2, §3

NCI-H460 = test: SRB cell proliferation assay, NCI-H460; assay type: cell-based; conditions: Homo sapiens; NCI-H460 (NSCLC); compound 1 tested in racemic mixture
Description: as §1, §2, §3

OVCAR-3 = test: SRB cell proliferation assay, OVCAR-3; assay type: cell-based; conditions: Homo sapiens; OVCAR-3 (ovary); compound 1 tested in racemic mixture
Description: as §1, §2, §3

PC-3 = test: SRB cell proliferation assay, PC-3; assay type: cell-based; conditions: Homo sapiens; PC-3 (prostate); compound 1 tested in racemic mixture
Description: as §1, §2, §3

SW620 = test: SRB cell proliferation assay, SW620; assay type: cell-based; conditions: Homo sapiens, SW-620; SW620 (colon); compound 1 tested in racemic mixture
Description: as §1, §2, §3

A-375 = test: SRB cell proliferation assay, A-375; assay type: cell-based; conditions: Homo sapiens; A-375 (melanoma); compound 1 tested in racemic mixture
Description: as §1, §2, §3

HT-29 = test: SRB cell proliferation assay, HT-29; assay type: cell-based; conditions: Homo sapiens; HT-29 (colon); compound 1 tested in racemic mixture; read-out: IC50
Description: as §1, §2, §3

HCT 116 = test: SRB cell proliferation assay, HCT 116; assay type: cell-based; conditions: Homo sapiens; HCT 116 (colon); compound 1 tested in racemic mixture; read-out: IC50
Description: as §1, §2, §3

HeLa = test: SRB cell proliferation assay, HeLa; assay type: cell-based; conditions: Homo sapiens; HeLa (cervix); compound 1 tested in racemic mixture
Description: as §1, §2, §3

IMR-90 = test: SRB cell proliferation assay, IMR-90; assay type: cell-based; conditions: Homo sapiens; IMR-90 (lung); compound 1 tested in racemic mixture; read-out: IC50
Description: as §1, §2, §3

MDA-MB-231 = test: SRB cell proliferation assay, MDA-MB-231; assay type: cell-based; conditions: Homo sapiens; MDA-MB-231 (breast); compound 1 tested in racemic mixture
Description: as §1, §2, §3

SK-MEL-28 = test: SRB cell proliferation assay, SK-MEL-28; assay type: cell-based; conditions: Homo sapiens; SK-MEL-28 (melanoma); compound 1 tested in racemic mixture
Description: as §1, §2, §3

SK-MEL-5 = test: SRB cell proliferation assay, SK-MEL-5; assay type: cell-based; conditions: Homo sapiens; SK-MEL-5 (melanoma); compound 1 tested in racemic mixture
Description: as §1, §2, §3

COLO 205 = test: SRB cell proliferation assay, COLO 205; assay type: cell-based; conditions: Homo sapiens; COLO 205 (colon); compound 1 tested in racemic mixture
Description: as §1, §2, §3

NCI-H460 tumor cells = test: Mouse xenograft model using human NCI-H460 cells; assay type: in vivo; conditions: for mean body weight / mean body weight change: end of day four after begin of treatment; for mice died: mouse, in vivo
Description: […]. Human HT-29 cells (ATCC) colon carcinoma cell line are cultured in McCoy's medium (ATCC) supplied with 10% FCS and 1% Pen/Strep. The 2nd passage of cells with approximately 80% confluence is used in the study. Briefly, on Day 0, mice are inoculated with 0.1 ml (total 5x10^6 cells) of HT-29 cell suspension (50x10^6 cells/ml in McCoy's medium without supplements mixed 1:1 with Matrigel) by a subcutaneous injection into the lower right flank under light anesthesia. When the average tumor weights reaches above 100mg, animals with an appropriate tumor size are selected and are randomly divided into treatment groups (10 animals each).
Tumor growth and body weight are monitored and recorded twice a week. Tumors are measured by determining the length and width of the tumor with a digital caliper. Tumor weight is estimated using the following formula: Tumor Weight (mg) = (w^2 x 1) / 2 where w = width and I = length in mm of the tumor.
Toxic deaths are defined as deaths caused by compound treatment and not by advanced disease state. […].
In a model similar to the one described in a), mice were inoculated with NCI-H460 tumor cells, and treated (9 mice for each treatment group) with either vehicle only (NMP:PEG300), compound 1 (70 mg/kg once per week), compound 1 (35 mg/kg twice per week), BI 6727 (70 mg/kg once per week) and gemcitabine (25 mg/kg, once per week) (vivoPharm Europe Limited, Munich, Germany). At the end of day four after begin of treatment, the mean body weight for the compound 1 treatment groups had dropped from 20.5 g to 19.2 g (~5%; standard deviation 2.6 g), and from 20.1 g to 19.3 g (-4%; standard deviation 0.9 g), respectively, and one mouse in the high-dose treatment group had died. In contrast, in the BI 6727 treatment group, the mean body weight had dropped from 20.2 g to 16.2 g (-20%; standard deviation 1.5 g), five mice had died and the remaining mice had to be killed for ethical reasons.

[1] = system: 255 other protein kinases; test: Standard selectivity panel (ProQinase), 255 other kinases; assay type: biochemical; conditions: 1 µM, duplicates; all other kinases
Description: (§4) The compound of the present invention was tested in a standard selectivity panel including Plkl and 255 other kinases (ProQinase GmbH, Freiburg, Germany), under conditions of non-disclosure, non-dissemination and non-use.
(§5) In brief, compound 1 (see Table 1) was tested at 1 µM in duplicates against Plk1 as well as against 255 other protein kinases, including Abl, Aktl, Aur A, Kit, Raf-1, Cdkl/CycB1, Chk1, FGF-R3, Flt3, Fyn, IGF1-R, INS-R, Lyn, p38a, PAK4, PKCalpha, Ret, ROCK2, Src, TIE2, and VEGF-R2. The test compound 1 inhibited Plk1 by more than about 90%, only three other kinases were inhibited by between about 50% and about 90%, about 13 kinases by between about 10% and about 50%, and all other kinases were inhibited by less than about 10%.

[2] = system: panel of 57 tumor cell lines; test: Panel of 57 tumor cell lines (OncoLead), growth inhibition; assay type: cell-based
Description: In a similar experiment, the inhibitory activity of compound 1 was tested against a panel of 57 tumor cell lines (OncoLead GmbH&Co.KG, Martinsried, Germany) under conditions of non-disclosure, non-dissemination and non-use.
In 18 cell lines, the GI50 value was between 1 µM and 0.1 µM, and in 31 cell lines, the GI50 value was below 0.1 µM.

Plk1 = Plk1 (Homo sapiens, UniProt P53350); test: Standard selectivity panel (ProQinase), Plk1; assay type: biochemical; set-up: purchased ProQinase GmbH, Freiburg, Germany; conditions: duplicates, read-out: inhibited Plk1
Description: as §4, §5

Chain of Plk1 (P53350 whole entry, species assumed): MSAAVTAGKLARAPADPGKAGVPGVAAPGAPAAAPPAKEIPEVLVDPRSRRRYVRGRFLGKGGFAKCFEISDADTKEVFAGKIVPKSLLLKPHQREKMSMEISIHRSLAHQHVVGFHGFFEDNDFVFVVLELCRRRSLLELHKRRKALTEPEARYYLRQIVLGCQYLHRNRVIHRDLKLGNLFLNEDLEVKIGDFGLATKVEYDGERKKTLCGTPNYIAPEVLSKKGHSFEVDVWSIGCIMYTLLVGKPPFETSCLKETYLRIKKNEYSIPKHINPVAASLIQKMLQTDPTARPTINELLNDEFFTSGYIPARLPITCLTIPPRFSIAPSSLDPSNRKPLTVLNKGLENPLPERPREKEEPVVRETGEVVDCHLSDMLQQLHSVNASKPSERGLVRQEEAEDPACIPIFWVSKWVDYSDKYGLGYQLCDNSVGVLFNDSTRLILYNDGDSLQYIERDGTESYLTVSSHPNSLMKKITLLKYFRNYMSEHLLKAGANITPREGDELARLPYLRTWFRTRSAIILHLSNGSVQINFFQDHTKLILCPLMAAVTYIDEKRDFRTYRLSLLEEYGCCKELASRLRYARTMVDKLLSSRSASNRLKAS

CC[C@@H]1C(=O)N(C)c2cnc(Nc3ccc(C(=O)NC4CCN(C)CC4)cc3OC)nc2N1C1CCCC1 [BI 2536, reference compound]
pIC50 (A-431): > 6.00
pIC50 (A549): > 6.00
pIC50 (ACHN): > 6.00
pIC50 (DU 145): > 6.00
IC50 (MDA-MB-468): plateau at ∼50%
pIC50 (NCI-H460): > 6.00
pIC50 (OVCAR-3): > 6.00
pIC50 (PC-3): > 6.00
pIC50 (SW620): > 6.00
pIC50 (A-375): > 6.00
pIC50 (HT-29): > 6.00
pIC50 (HCT 116): > 6.00
pIC50 (HeLa): > 6.00
pIC50 (IMR-90): < 6.00
pIC50 (MDA-MB-231): > 6.00
pIC50 (SK-MEL-28): > 6.00
pIC50 (SK-MEL-5): > 6.00
pIC50 (COLO 205): > 6.00

CC[C@@H]1C(=O)N(C)c2cnc(Nc3ccc(C(=O)N[C@H]4CC[C@H](N5CCN(CC6CC6)CC5)CC4)cc3OC)nc2N1C(C)C [BI 6727, reference compound]
mean body weight (NCI-H460 tumor cells; 70 mg/kg once per week): 16.2 g
mean body weight change (NCI-H460 tumor cells; 70 mg/kg once per week): -20%
mice died (NCI-H460 tumor cells): five

CC[C@@H]1C(=O)N(C)c2cnc(Nc3ccc(C(=O)N[C@H]4CC[C@H](N5CCN(CC6CC6)CC5)CC4)cc3OC)nc2N1N(C)C [Compound 1, (7R)-N-[trans-4-(4-Cyclopropylmethyl-piperazin-1-yl)-cyclohexyl]-4-(8-dimethylamino-7-ethyl-5-methyl-6-oxo-5,6,7,8-tetrahydro-pteridin-2-ylamino)-3-methoxy-benzamide]
kinases inhibited [1]: less than 10%
pIC50 (A-431): > 6.00
pIC50 (A549): > 6.00
pIC50 (ACHN): > 6.00
pIC50 (DU 145): > 6.00
pIC50 (MDA-MB-468; Homo sapiens, read-out: IC50): < 6.00
pIC50 (NCI-H460): > 6.00
pIC50 (OVCAR-3): > 6.00
pIC50 (PC-3): > 6.00
pIC50 (SW620): > 6.00
pIC50 (A-375): > 6.00
pIC50 (HT-29): > 6.00
pIC50 (HCT 116): > 6.00
pIC50 (HeLa): > 6.00
pIC50 (IMR-90): < 6.00
pIC50 (MDA-MB-231): > 6.00
pIC50 (SK-MEL-28): < 6.00
pIC50 (SK-MEL-5): > 6.00
pIC50 (COLO 205): > 6.00
GI50 ([2]; in 18 cell lines of 57): 100 to 1000 nM
GI50 ([2]; in 31 cell lines of 57): < 100 nM
GI50 ([2]; in about 49 cell lines of 57): < 1000 nM
mean body weight (NCI-H460 tumor cells; 35 mg/kg twice per week): 19.3 g
mean body weight change (NCI-H460 tumor cells; 35 mg/kg twice per week): -4%
tumor growth (NCI-H460 tumor cells; 70 mg/kg once per week and 35 mg/kg twice per week, compared with vehicle only or gemcitabine groups): a reduction of tumor growth could be observed
mean body weight (NCI-H460 tumor cells; 70 mg/kg once per week): 19.2 g
mean body weight change (NCI-H460 tumor cells; 70 mg/kg once per week): ~ 5%
mice died (NCI-H460 tumor cells): one
inhibition at 1 µM (Plk1): > 90%

Source: patent EP2325185A1, “Plk inhibitor” (GPC Biotech AG, priority 2009, dated 2011)
